23 molecules from patent US20250268903A1, “RXFP1 AGONISTS” (BRISTOL-MYERS SQUIBB COMPANY, priority 2021, published 2025) can be followed below.

This test has as its target T1, human RXFP1 (Homo sapiens, UniProt Q9HBX9).
T1 construct: expressed in transfected cells
T1 sequence (Q9HBX9 1-757): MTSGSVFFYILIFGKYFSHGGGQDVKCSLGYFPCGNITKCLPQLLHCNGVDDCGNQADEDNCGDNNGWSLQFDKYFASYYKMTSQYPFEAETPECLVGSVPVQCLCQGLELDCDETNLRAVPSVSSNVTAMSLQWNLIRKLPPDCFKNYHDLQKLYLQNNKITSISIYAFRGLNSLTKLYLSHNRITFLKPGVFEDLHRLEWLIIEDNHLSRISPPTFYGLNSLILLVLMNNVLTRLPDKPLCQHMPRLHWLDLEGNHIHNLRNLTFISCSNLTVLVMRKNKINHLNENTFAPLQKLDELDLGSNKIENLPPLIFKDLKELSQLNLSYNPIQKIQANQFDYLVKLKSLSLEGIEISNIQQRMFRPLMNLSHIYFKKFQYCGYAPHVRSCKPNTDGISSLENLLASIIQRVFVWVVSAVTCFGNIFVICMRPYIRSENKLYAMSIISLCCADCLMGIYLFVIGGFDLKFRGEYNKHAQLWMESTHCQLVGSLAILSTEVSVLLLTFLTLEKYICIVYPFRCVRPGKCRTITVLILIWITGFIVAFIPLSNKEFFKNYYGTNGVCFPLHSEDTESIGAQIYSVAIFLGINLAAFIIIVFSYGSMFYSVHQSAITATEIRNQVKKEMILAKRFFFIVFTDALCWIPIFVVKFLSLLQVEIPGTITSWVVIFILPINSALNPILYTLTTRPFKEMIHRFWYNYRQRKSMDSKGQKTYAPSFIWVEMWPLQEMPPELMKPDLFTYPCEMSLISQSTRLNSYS
Nature of the test: hRXFP1 HEK293 cAMP assay (HTRF). It is filed as cell-based. The following applies: HEK293 cells stably expressing human RXFP1, 30 min at room temperature. A digest of the protocol: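 HEK293 cells stably expressing human RXFP1 (1500 cells/well) in HBSS/20 mM HEPES/0.05% BSA/0.5 mM IBMX. Compounds were tested at 0.010 nM–50 μM final (2% DMSO) for 30 min at room temperature. cAMP was measured by HTRF and values derived by 4-parameter logistic fit.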
Regarding `COc1ccc(CCCNC(=O)C2CCOCC2)cc1C(=O)N[C@@H]1C2CCC(/C2=C/C(F)(F)F)[C@@H]1C(=O)Nc1ccc(F)c(C(F)(F)F)c1` (stereo partly drawn) [Example 115, N-[3-(3-{[(2R,3S,7Z)-3-{[4-fluoro-3-(trifluoromethyl)phe-nyl]carbamoyl}-7-(2,2,2-trifluoroethylidene)bi-cyclo[2.2.1]heptan-2-yl]carbamoyl}-4-methoxyphenyl)pro-pyl]oxane-4-carboxamide], the midpoint of the response, the EC50, lay at 536 nM.
As to `COc1ccc(COC2CCC(OCc3ccccc3)CC2)cc1C(=O)N[C@@H]1C2CCC(/C2=C/C2CC2)[C@@H]1C(=O)Nc1ccc(F)c(C(F)(F)F)c1` (single isomer, unassigned) [Example 24], the EC50 turned out to be 1810 nM.
The result for `COc1ccc(CCCO)cc1C(=O)NC1C2CCC(/C2=C/C2CCCC2)[C@@H]1C(=O)Nc1ccc(F)c(C(F)(F)F)c1` (some centres unmarked) [Example 167, (7Z)-7-(cyclopentylmethyli-dene)-N-[4-fluoro-3-(trifluoromethyl)phe-nyl]-3-[5-(3-hydroxypropyl)-2-methoxybenzamido] bicyclo[2.2.1]heptane-2-carboxamide] reads 11 nM; that for `COc1ccc(CC(C)CO)cc1C(=O)N[C@@H]1C2CCC(/C2=C/C(F)(F)F)[C@@H]1C(=O)Nc1ccc(F)c(C(F)(F)F)c1` (single isomer, unassigned) [Example 66], 142 nM.
As to `COc1ccc(C(=O)N2CCO[C@@H](CO)C2)cc1C(=O)N[C@H]1[C@@H](C(=O)Nc2ccc(F)c(C(F)(F)F)c2)[C@H]2CC[C@@H]1/C2=C\C1CC1` [Example 231, (1R,2S,3R,4R,7Z)-7-(cyclopropylmethyl-idene)-N-[4-fluoro-3-(trifluoromethyl)phenyl]-3-{5-[(2R)-2-(hydroxymethyl)morpholine-4-carbonyl]-2-methoxybenzamido} bicyclo[2.2.1] heptane-2-carboxamide], a half-maximal effect (EC50) was put at 32 nM.
In turn, `COc1ccc(C(=O)N2CCCC(CO)C2)cc1C(=O)N[C@H]1[C@@H](C(=O)Nc2ccc(F)c(C(F)(F)F)c2)[C@H]2CC[C@@H]1/C2=C\C1CC1` (stereo partly drawn) [Example 235, (1R,2S,3R,4R,7Z)-7-(cyclopropylmethyl-idene)-N-[4-fluoro-3-(trifluoromethyl)phenyl]-3-{5-[3-(hydroxymethyl)piperidine-1-carbonyl]-2-methoxybenzamido} bicyclo[2.2.1] heptane-2-carboxamide] registered an EC50 of 130 nM.
On to `COc1ccc(/C=C(/C)C(=O)N2CCC(O)CC2)cc1C(=O)N[C@H]1[C@@H](C(=O)Nc2ccc(F)c(C(F)(F)F)c2)[C@H]2CC[C@@H]1/C2=C\C(F)(F)F` [Example 319], for which the EC50 turned out to be 1120 nM.
For `COc1ccc(CCC(C)(C)O)cc1C(=O)NC1C2CCC(/C2=C/C2CCOCC2)[C@@H]1C(=O)Nc1ccc(F)c(C(F)(F)F)c1` (some centres unmarked) [Example 166, (7Z)-N-[4-fluoro-3-(trifluoromethyl)phe-nyl]-3-[5-(3-hydroxy-3-methylbutyl)-2-methoxybenzamido]-7-[(oxan-4-yl)methylidene]bicy-clo[2.2.1]heptane-2-carboxamide] the value was 129 nM.
“(2S,3R,7Z)-7- butylidene-N-[4- fluoro-3- (trifluoromethyl)phe- nyl]-3-[5-(3- hydroxy-3- methylbutyl)-2- methoxybenzamido] bicyclo[2.2.1]heptane- 2-carboxamide [Example 88]”: the EC50 was found to be 28 nM.
The result for `COc1ccc(COC2CCC(OCc3ccccc3)CC2)cc1C(=O)N[C@@H]1C2CCC(/C2=C/C2CC2)[C@@H]1C(=O)Nc1ccc(F)c(C(F)(F)F)c1` (single isomer, unassigned) [Example 23] reads 993 nM.
With `COc1ccc(C2CCCC(OC(=O)Nc3ccccc3)C2)cc1C(=O)N[C@@H]1C2CCC(/C2=C/C(F)(F)F)[C@@H]1C(=O)Nc1ccc(F)c(C(F)(F)F)c1` (single isomer, unassigned) [Example 40], a half-maximal response (EC50) required 19 nM.
Take `COc1ccc(C#CC(C)(C)O)cc1C(=O)N[C@@H]1C2CCC(/C2=C/C(F)(F)F)[C@@H]1C(=O)Nc1ccc(F)c(C(F)(F)F)c1` (stereo partly drawn) [Example 70, (2S,3R,7Z)-N-[4-fluoro-3-(trifluoromethyl)phe-nyl]-3-[5-(3-hydroxy-3-methylbut-1-yn-1-yl)-2-methoxybenzamido]-7-(2,2,2-trifluoroethylidene)bi-cyclo[2.2.1]heptane-2-carboxamide]: it took 309 nM to reach a half-maximal effect (EC50).
`COc1ccc(/C=C/C(=O)N(C)CCO)cc1C(=O)N[C@H]1[C@@H](C(=O)Nc2ccc(F)c(C(F)(F)F)c2)[C@H]2CC[C@@H]1/C2=C\C1CC1` [Example 302, (1R,2S,3R,4R,7Z)-7-(cyclopropyl-methylidene)-N-[4-fluoro-3-(trifluoromethyl)phenyl]-3-{5-[(1E)-2-[(2-hydroxyethyl) (methyl)carbamoyl]eth-1-en-1-yl]-2-methoxybenzamido} bicyclo[2.2.1]heptane-2-carboxamide] yielded an EC50 of 16.3 nM.
`C#Cc1ccc(OC)c(C(=O)N[C@@H]2C3CCC(/C3=C/C(F)(F)F)[C@@H]2C(=O)Nc2ccc(F)c(C(F)(F)F)c2)c1` (stereo partly drawn) [Example 75, (2S,3R,7Z)-3-(5-ethynyl-2-methoxybenzamido)-N-[4-fluoro-3-(trifluoromethyl)phe-nyl]-7-(2,2,2-trifluoroethylidene)bi-cyclo[2.2.1]heptane-2-carboxamide] came in with an EC50 of 91 nM.
For `COc1ccc(C2CC(C(C)(C)O)C2)cc1C(=O)N[C@H]1[C@@H](C(=O)Nc2ccc(F)c(C(F)(F)F)c2)[C@H]2CC[C@@H]1/C2=C\C1CCCC1` (stereo partly drawn) [Example 363, (1R,2S,3R,4R,Z)-7-(cyclopentyl-methylene)-N-(4-fluoro-3-(trifluoromethyl)phenyl)-3-(5-(3-(2-hydroxypropan-2-yl)cyclobutyl)-2-methoxybenzamido) bicyclo[2.2.1] heptane-2-carboxamide] the value was 3.9 nM; for `COCC/C=C1\C2CCC1[C@H](C(=O)Nc1ccc(F)c(C(F)(F)F)c1)C2NC(=O)c1cc(CCCO)ccc1OC` (some centres unmarked) [Example 161, (7Z)-N-[4-fluoro-3-(trifluoromethyl)phe-nyl]-3-[5-(3-hydroxypropyl)-2-methoxybenzamido]-7-(3-methoxypropylidene) bicyclo[2.2.1]heptane-2-carboxamide], 1160 nM; for `COc1ccc(CCCCCCOC(=O)NC2CCC2)cc1C(=O)N[C@@H]1C2CCC(/C2=C/C(F)(F)F)[C@@H]1C(=O)Nc1ccc(F)c(C(F)(F)F)c1` (stereo partly drawn) [Example 101, 6-(3-{[(2R,3S,7Z)-3-{[4-fluoro-3-(trifluoromethyl)phe-nyl]carbamoyl}-7-(2,2,2-trifluoroethylidene)bi-cyclo[2.2.1]heptan-2-yl]carbamoyl}-4-methoxyphenyl)hex-yl N-cyclobutylcarbamate], 194 nM.
The molecule `COc1ccc(C23CCC(C(C)(C)O)(CC2)CC3)cc1C(=O)N[C@H]1[C@@H](C(=O)Nc2ccc(F)c(C(F)(F)F)c2)[C@H]2CC[C@@H]1/C2=C\C1CC1` (single isomer, unassigned) [Example 276] showed an EC50 of 2600 nM.
For `COc1ccc(/C=C/C(=O)N2CC(O)C2)cc1C(=O)N[C@H]1[C@@H](C(=O)Nc2ccc(F)c(C(F)(F)F)c2)[C@H]2CC[C@@H]1/C2=C\C(F)(F)F` [Example 314] the value was 66.2 nM.
For `COc1ccc(S(=O)(=O)N2CCN3C(=O)CCC3C2)cc1C(=O)N[C@H]1[C@@H](C(=O)Nc2ccc(F)c(C(F)(F)F)c2)[C@H]2CC[C@@H]1/C2=C\C(F)(F)F` (stereo partly drawn) [Example 210, (1R,2S,3R,4R,7Z)-N-[4-fluoro-3-(trifluoromethyl)phenyl]-3-[2-methoxy-5-({6-oxo-octabydropyrrolo [1,2-a]piperazin-2-yl}sulfonyl)benzamido]-7-(2,2,2-trifluoroethylidene) bicyclo[2.2.1] heptane-2-carboxamide] the value was 237 nM; for `COc1ccc(CCCOc2ccncc2)cc1C(=O)NC1C2CCC(/C2=C/C(F)(F)F)[C@@H]1C(=O)Nc1ccc(F)c(C(F)(F)F)c1` (some centres unmarked) [Example 104], 988 nM; for `COc1ccc(S(=O)(=O)NC[C@H](C)O)cc1C(=O)N[C@@H]1C2CCC(/C2=C/C(F)(F)F)[C@@H]1C(=O)Nc1ccc(F)c(C(F)(F)F)c1` (stereo partly drawn) [Example 197, (1R,2S,3R,4R,Z)—N-(4-fluoro-3-(trifluoromethyl)phenyl)-3-(5-(N—((S)-2-hydroxypropyl)sulfamoyl)-2-methoxybenzamido)-7-(2,2,2-trifluoroethylidene) bicyclo[2.2.1]heptane-2-carboxamide], 918 nM.
As for `COc1ccc(C2CC2C(=O)N2CCC(O)CC2)cc1C(=O)N[C@H]1[C@@H](C(=O)Nc2ccc(F)c(C(F)(F)F)c2)[C@H]2CC[C@@H]1/C2=C\C(F)(F)F` (single isomer, unassigned) [Example 323], it took 21.5 nM to reach a half-maximal effect (EC50).
